Here are results for seven compounds from article PMC6628435, “Chemical Synthesis, Proper Folding, Nav Channel Selectivity Profile and Analgesic Properties of the Spider Peptide Phlotoxin 1” (Toxins, 2019).

Bridge positions count the residues as written; N and C are the ends. Peptide text beside a SMILES is read from it.

In one assay the target is T1, human Nav1.7 (Homo sapiens, UniProt Q15858).
T1 construct: expressed in transfected cells
Description: Automated patch-clamp (Nanion SyncroPatch 384PE) on CHO cells expressing human Nav1.7. The format is cell-based. The note with it: for block of Nav1.7 inward current: 100 nM toxin, end of application (about 12-13 min), CHO hNav1.7; for Hill value: same dose-response fit as IC50, CHO hNav1.7 automated patch-clamp. The source says: We used a CHO mammalian cell line expressing the human Nav1.7 instead of Xenopus oocytes for the pharmacological evaluation. […] 100-ms pulses from −100 mV to −10 mV were applied at a frequency of 0.2 Hz and various concentrations of PhlTx1 were applied to the cells. […] Using a manual patch clamp, which is better suited to investigate current recovery from block than an automated patch clamp that requires several washing steps, we investigated the reversibility properties of a PhlTx1 block.
CHO cells stably expressing the human Nav1.7 cells were cultured in Dulbecco’s Modified Eagle’s Medium (DMEM) supplemented with 10% fetal calf serum, 1 mM pyruvic acid, 4 mM glutamine, 10 IU/mL penicillin and 10 μg/mL streptomycin (Gibco, Grand Island, NY, USA), and incubated at 37 °C in a 5% CO2 atmosphere. For automated patch-clamp recordings, cells were detached with trypsin and floating single cells were diluted (~300,000 cells/mL) in medium contained (in mM): 4 KCl, 140 NaCl, 5 Glucose, 10 HEPES (pH 7.4, osmolarity 290 mOsm).
Chips with single-hole and high-resistance (~6–7 MΩ) were used for CHO cell recordings. Voltage pulses and whole-cell recordings were achieved using the PatchControl384 v1.5.2 software (Nanion, Munich, Germany) and the Biomek v1.0 interface (Beckman Coulter). Prior recordings, dissociated cells were shaken at 60 RPM in a cell hotel reservoir at 10 °C. After cell catching, sealing, whole-cell formation, liquid application, recording, and data acquisition were all performed sequentially and automatically. […] Whole-cell experiments were done at −100 mV holding potential and at room temperature (18–22 °C), while currents triggered at −10 mV test potential were sampled at 20 kHz. Stimulation frequency was set at 0.2 Hz. Toxins were prepared at various concentrations in the extracellular solution, itself supplemented with 0.3% BSA. […] Compound solutions were diluted 3 times in the patch-clamp recording well by adding 30 μL to 60 μL external solution to reach the final reported concentration and the test volume of 90 μL. Percentages of current inhibitions were measured at the end of a 12- to 15-min application time (12-min for fast blocking toxins; 15-min for slow blocking ones). A single concentration of peptide was tested on each cell for building the full-inhibition curves.

In a further assay the test system is human Nav1.7 channel. The note with it: ref [45]; cited from earlier work.
Assay [1] concerns formalin-induced spontaneous pain behavior. Description: Formalin pain test in mice after intrathecal injection. The class given is in vivo, C57BL/6J mice. The note with it: mouse, in vivo.

T1 sequence (Q15858 whole entry): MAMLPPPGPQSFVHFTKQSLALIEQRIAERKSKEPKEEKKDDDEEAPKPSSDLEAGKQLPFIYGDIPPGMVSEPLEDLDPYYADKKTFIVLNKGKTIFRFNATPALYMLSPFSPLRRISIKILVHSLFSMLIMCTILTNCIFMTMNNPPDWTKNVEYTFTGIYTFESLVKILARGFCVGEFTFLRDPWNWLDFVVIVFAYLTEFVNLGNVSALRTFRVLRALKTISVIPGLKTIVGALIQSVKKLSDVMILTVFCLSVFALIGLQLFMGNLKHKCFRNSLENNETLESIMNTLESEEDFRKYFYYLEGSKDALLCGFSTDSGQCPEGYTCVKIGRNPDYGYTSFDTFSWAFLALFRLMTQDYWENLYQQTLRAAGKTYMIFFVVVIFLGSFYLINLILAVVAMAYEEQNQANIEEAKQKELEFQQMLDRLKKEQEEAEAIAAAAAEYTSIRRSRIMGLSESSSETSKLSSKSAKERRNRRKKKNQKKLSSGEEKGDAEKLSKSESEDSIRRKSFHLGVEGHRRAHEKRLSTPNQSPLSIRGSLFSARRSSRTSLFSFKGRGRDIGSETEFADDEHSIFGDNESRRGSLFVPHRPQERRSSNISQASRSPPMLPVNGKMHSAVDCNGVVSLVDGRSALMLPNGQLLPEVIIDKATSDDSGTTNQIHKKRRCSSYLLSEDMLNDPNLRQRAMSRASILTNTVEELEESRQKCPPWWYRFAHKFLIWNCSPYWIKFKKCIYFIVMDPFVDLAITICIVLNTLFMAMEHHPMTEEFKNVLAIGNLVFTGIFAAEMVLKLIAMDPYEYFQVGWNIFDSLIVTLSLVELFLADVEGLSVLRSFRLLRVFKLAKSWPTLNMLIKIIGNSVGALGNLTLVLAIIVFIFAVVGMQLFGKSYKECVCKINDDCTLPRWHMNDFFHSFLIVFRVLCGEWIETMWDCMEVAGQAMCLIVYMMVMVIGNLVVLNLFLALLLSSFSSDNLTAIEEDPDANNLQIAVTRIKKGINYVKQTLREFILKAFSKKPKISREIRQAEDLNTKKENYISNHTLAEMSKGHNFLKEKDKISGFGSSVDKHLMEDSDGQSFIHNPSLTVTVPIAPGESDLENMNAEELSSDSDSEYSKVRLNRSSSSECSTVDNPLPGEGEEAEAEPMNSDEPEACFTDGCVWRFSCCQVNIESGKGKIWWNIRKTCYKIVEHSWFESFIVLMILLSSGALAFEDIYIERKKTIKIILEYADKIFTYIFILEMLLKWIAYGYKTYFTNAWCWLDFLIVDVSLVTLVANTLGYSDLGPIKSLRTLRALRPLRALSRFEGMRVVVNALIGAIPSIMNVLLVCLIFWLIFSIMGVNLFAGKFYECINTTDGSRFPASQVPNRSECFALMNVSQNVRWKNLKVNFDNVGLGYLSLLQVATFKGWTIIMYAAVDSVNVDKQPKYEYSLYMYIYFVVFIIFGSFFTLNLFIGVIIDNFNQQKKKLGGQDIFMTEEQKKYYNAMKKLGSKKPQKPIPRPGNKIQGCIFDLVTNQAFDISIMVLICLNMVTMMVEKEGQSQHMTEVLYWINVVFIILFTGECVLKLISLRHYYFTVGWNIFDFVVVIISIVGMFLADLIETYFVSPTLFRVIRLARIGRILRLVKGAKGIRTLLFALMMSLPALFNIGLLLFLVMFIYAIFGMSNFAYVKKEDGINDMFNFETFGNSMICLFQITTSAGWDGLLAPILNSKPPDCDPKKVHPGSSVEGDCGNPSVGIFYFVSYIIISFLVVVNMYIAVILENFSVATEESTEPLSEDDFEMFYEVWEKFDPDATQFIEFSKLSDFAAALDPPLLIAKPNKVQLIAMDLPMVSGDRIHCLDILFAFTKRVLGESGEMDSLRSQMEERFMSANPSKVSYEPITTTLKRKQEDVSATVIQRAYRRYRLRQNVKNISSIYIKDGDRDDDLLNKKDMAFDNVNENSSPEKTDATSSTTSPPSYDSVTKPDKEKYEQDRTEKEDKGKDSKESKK

In general, IC50 refers to the concentration at which inhibition is half-maximal. Regarding `CC[C@H](C)[C@@H]1NC(=O)[C@H](CC(N)=O)NC(=O)[C@H](CCCNC(=N)N)NC(=O)[C@@H]2CCCN2C(=O)[C@H](Cc2c[nH]c3ccccc23)NC(=O)[C@H](CCCCN)NC(=O)[C@H](CO)NC(=O)[C@H](CCCCN)NC(=O)[C@@H]2CSSC[C@@H]3NC(=O)[C@H](CCCCN)NC(=O)CNC(=O)[C@H](Cc4c[nH]c5ccccc45)NC(=O)[C@H](Cc4ccccc4)NC(=O)[C@H](CCCNC(=N)N)NC(=O)[C@H](C(C)C)NC(=O)[C@@H](NC(=O)[C@@H](N)CC(=O)O)CSSC[C@H](NC(=O)[C@H](CSSC[C@@H](C(=O)N[C@H](C(=O)N[C@@H](Cc4c[nH]c5ccccc45)C(=O)N[C@@H](CC(=O)O)C(=O)NCC(=O)N[C@@H](CO)C(=O)N[C@H](C(=O)O)C(C)C)C(C)C)NC1=O)NC(=O)[C@H](CC(=O)O)NC(=O)[C@H](CO)NC(=O)[C@H]([C@@H](C)O)NC(=O)[C@H](CCC(N)=O)NC(=O)[C@H](CO)NC3=O)C(=O)N1CCC[C@H]1C(=O)N[C@@H](Cc1c[nH]cn1)C(=O)N[C@@H](CC(C)C)C(=O)N[C@@H](C)C(=O)N2` [GrTx1], at human Nav1.7, the concentration for half-maximal inhibition (IC50) was found to be 15.3 nM and the “block of Nav1.7 inward current” value is given as “about 50%”.
Consider `CC[C@H](C)[C@H](NC(=O)[C@H](CCCCN)NC(=O)[C@H](CCCCN)NC(=O)[C@H](CCCCN)NC(=O)[C@@H]1CSSC[C@@H]2NC(=O)[C@H](CCCCN)NC(=O)[C@H](CCCNC(=N)N)NC(=O)[C@H](CCC(=O)O)NC(=O)[C@H](CCC(=O)O)NC(=O)[C@H](CC(=O)O)NC(=O)[C@@H]3CSSC[C@H](NC(=O)[C@H](C(C)C)NC(=O)[C@H](CC(C)C)NC(=O)CNC(=O)[C@H](CCC(=O)O)NC(=O)[C@H](CSSC[C@H](NC(=O)[C@@H](N)Cc4ccc(O)cc4)C(=O)N[C@@H](CCC(N)=O)C(=O)N[C@@H](CCCCN)C(=O)N[C@@H](Cc4c[nH]c5ccccc45)C(=O)N[C@@H](CCSC)C(=O)N[C@@H](Cc4c[nH]c5ccccc45)C(=O)N[C@@H]([C@@H](C)O)C(=O)N3)NC2=O)C(=O)N[C@@H](CCCNC(=N)N)C(=O)N[C@@H](CC(C)C)C(=O)N[C@@H](Cc2c[nH]c3ccccc23)C(=O)N1)C(=O)N[C@@H](CCC(=O)O)C(=O)N[C@@H](Cc1c[nH]c2ccccc12)C(=O)O` [GsAFII] (H-YCQKWMWTCDEERKCCEGLVCRLWCKKKIEW-OH; disulfide 2-16, 9-21, 15-25), for which, at human Nav1.7, the IC50 was 13.6 nM.
In turn, `CC[C@H](C)[C@H](NC(=O)[C@H](CCC(=O)O)NC(=O)[C@H](Cc1ccc(O)cc1)NC(=O)[C@H](CCCCN)NC(=O)[C@@H]1CSSC[C@@H]2NC(=O)[C@H](CCC(N)=O)NC(=O)[C@H](CC(=O)O)NC(=O)[C@H](CC(N)=O)NC(=O)[C@H](CO)NC(=O)[C@@H]3CCCN3C(=O)[C@H](CC(N)=O)NC(=O)[C@@H]3CSSC[C@H](NC(=O)[C@H](C(C)C)NC(=O)[C@H](CC(C)C)NC(=O)[C@H](CC(N)=O)NC(=O)[C@H](CO)NC(=O)[C@H](CO)NC(=O)[C@H](CCCCN)NC(=O)[C@H](CSSC[C@H](NC(=O)[C@@H](N)CCC(=O)O)C(=O)N[C@@H](CC(C)C)C(=O)NCC(=O)N[C@@H](Cc4ccccc4)C(=O)NCC(=O)N[C@@H](CCCCN)C(=O)NCC(=O)N3)NC2=O)C(=O)N[C@@H](CO)C(=O)N[C@@H](CCCNC(=N)N)C(=O)N[C@@H](CCCCN)C(=O)N[C@@H](Cc2c[nH]cn2)C(=O)N[C@@H](CCCNC(=N)N)C(=O)N[C@@H](Cc2c[nH]c3ccccc23)C(=O)N1)C(N)=O` [HnTx-IV] came in with an IC50 against human Nav1.7 of 4.3 nM.
For the compound `CC(C)C[C@H](NC(=O)[C@H](CCCCN)NC(=O)[C@H](Cc1c[nH]c2ccccc12)NC(=O)[C@H](CCCCN)NC(=O)[C@@H]1CSSC[C@@H]2NC(=O)[C@H](CCC(=O)O)NC(=O)[C@H](CC(N)=O)NC(=O)[C@H](CCCCN)NC(=O)CNC(=O)[C@@H]3CCCN3C(=O)[C@H]([C@@H](C)O)NC(=O)[C@@H]3CSSC[C@H](NC(=O)[C@H](C(C)C)NC(=O)[C@H](CCCNC(=N)N)NC(=O)[C@H](CC(N)=O)NC(=O)[C@@H]4CCCN4C(=O)[C@H](CSSC[C@H](NC(=O)[C@H](C)N)C(=O)N[C@@H](CCCCN)C(=O)NCC(=O)N[C@@H](C(C)C)C(=O)N[C@@H](Cc4ccccc4)C(=O)N[C@@H](CC(=O)O)C(=O)N[C@@H](C)C(=O)N3)NC2=O)C(=O)N[C@@H](CO)C(=O)N[C@@H](CC(=O)O)C(=O)N[C@@H](CCCCN)C(=O)N[C@@H](Cc2c[nH]cn2)C(=O)N[C@@H](CCCCN)C(=O)N[C@@H](Cc2c[nH]c3ccccc23)C(=O)N1)C(=O)O` [HwTx-I] (H-ACKGVFDACTPGKNECCPNRVCSDKHKWCKWKL-OH; disulfide 2-17, 9-22, 16-29; N-terminus and C-terminus assumed), at human Nav1.7, the “block of Nav1.7 inward current” value is “incomplete block” and the Hill value is given as 2.3. For the same compound, the “time constant of inhibition (τ)” value at human Nav1.7 (100 nM, mono-exponential fit (PhlTx1 n = 8)) is listed as 492 s.
Regarding `CSCC[C@@H]1NC(=O)[C@H](Cc2ccc(O)cc2)NC(=O)[C@H](CCCNC(=N)N)NC(=O)[C@@H](NC(=O)[C@@H](N)CC(=O)O)CSSC[C@@H]2NC(=O)[C@@H]3CSSC[C@@H](C(=O)N[C@@H](C)C(=O)N[C@@H](Cc4c[nH]c5ccccc45)C(=O)N[C@@H](CC(=O)O)C(=O)N[C@@H](Cc4ccccc4)C(=O)N[C@H](C(=O)N[C@@H](Cc4ccccc4)C(=O)N[C@H](C(=O)O)[C@@H](C)O)[C@@H](C)O)NC(=O)[C@H](Cc4ccc(O)cc4)NC(=O)[C@H](CCCCN)NC(=O)[C@H](CCSC)NC(=O)[C@H](CCCCN)NC(=O)[C@H](CCCNC(=N)N)NC(=O)[C@H](CCCCN)NC(=O)[C@H](CSSC[C@H](NC(=O)[C@H](CC(=O)O)NC(=O)CNC(=O)[C@H](Cc4ccccc4)NC1=O)C(=O)N[C@@H](CCC(=O)O)C(=O)N[C@@H](CCCCN)C(=O)N[C@@H](CC(=O)O)C(=O)N[C@@H](CCC(=O)O)C(=O)N[C@@H](CC(=O)O)C(=O)N3)NC(=O)CNC(=O)[C@H](CC(C)C)NC(=O)[C@H](Cc1c[nH]cn1)NC(=O)[C@H](CCCCN)NC2=O` [Pn3a], on human Nav1.7, the “block of Nav1.7 inward current” value is given as “fully insensitive” and the Hill value is given as 3. In addition, the IC50 in the assay with human Nav1.7 channel was 0.9 nM.
In turn, `CC(C)C[C@@H]1NC(=O)[C@H](Cc2c[nH]c3ccccc23)NC(=O)[C@H](Cc2ccc(O)cc2)NC(=O)[C@H](CCCNC(=N)N)NC(=O)[C@@H](NC(=O)[C@@H](N)CCC(=O)O)CSSC[C@@H]2NC(=O)[C@@H]3CSSC[C@@H](C(=O)N[C@H](C(=O)N[C@@H](Cc4c[nH]c5ccccc45)C(=O)N[C@@H](CC(=O)O)C(=O)NCC(=O)N[C@H](C(=O)N[C@@H](Cc4ccccc4)C(=O)N[C@@H](CO)C(=O)O)[C@@H](C)O)C(C)C)NC(=O)[C@H](Cc4c[nH]c5ccccc45)NC(=O)CNC(=O)[C@H](Cc4c[nH]cn4)NC(=O)[C@H](CCCNC(=N)N)NC(=O)[C@H](CCCNC(=N)N)NC(=O)[C@H](CO)NC(=O)[C@H](CSSC[C@H](NC(=O)CNC(=O)CNC1=O)C(=O)N[C@@H](CO)C(=O)N[C@@H](C)C(=O)NCC(=O)N[C@@H](CCC(N)=O)C(=O)N[C@@H]([C@@H](C)O)C(=O)N3)NC(=O)[C@H](C(C)C)NC(=O)[C@H](CC(C)C)NC(=O)[C@H](Cc1c[nH]cn1)NC(=O)[C@H](CCCCN)NC2=O` [ProTx-I] showed an IC50 against human Nav1.7 of 7.1 nM.
In the case of `CN1CC[C@]23c4c5ccc(O)c4O[C@H]2[C@@H](O)C=C[C@H]3[C@H]1C5` [morphine, reference compound], the “formalin-induced pain behavior (licking), Phase II (inflammation, 10–45 min)” value in assay [1] is on record as 0.
